From patent publication US20260062422A1 (Halda Therapeutics OpCo, Inc., priority 2022, published 2026) come the findings set out here.

Where only a bound is given, the exact number is not on record here.

In assay [1] the test system is T-Rex 293 cell line SC3 cells having increased expression of androgen receptor protein due to exposure to doxycycline. Description: Cellular growth inhibition, T-Rex 293 SC3 cells with doxycycline (androgen receptor induced), CellTiter-Glo. Conditions: 72 h, T-Rex 293 SC3 cells with 10 ng/mL doxycycline (increased androgen receptor expression). The class given is cell-based. An outline of the steps: (§1)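 Cells of clone SC3 are seeded in charcoal-dextran-stripped serum medium with or without 10 ng/mL doxycycline to induce wild-type androgen receptor. After 24 h, serial compound dilutions are added at 0.5% DMSO and incubated 72 h at 37 °C. CellTiter-Glo 2.0 measures viability, giving GI50 values.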

In the next assay the test system is T47D cells. Description: Cellular growth inhibition assay for T47D cells, CellTiter-Glo. It counts as cell-based, human. Conditions: Homo sapiens, T47D, 72 h, 72 hours treatment, CellTiter-Glo 2.0 cell viability. An outline of the steps: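 Growth inhibition as GI50, fitted with four parameters to CellTiter-Glo luminescence after 72 h of compound exposure (0.5% DMSO). Cells were T47D, grown in insulin-supplemented (0.2 units/mL) DMEM with 10% FBS and treated one day post-seeding.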

A further assay deals with VCaP cells. Kind of assay: Cellular growth inhibition assay for VCaP cells, CellTiter-Glo. It counts as cell-based, human. The note with it: Homo sapiens, VCaP, 72 h, 72 hours treatment, CellTiter-Glo 2.0. An outline of the steps: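 GI50 values come from four-parameter curve fits of luminescence data normalized to a zero baseline. Compound, in medium with 0.5% DMSO, was added one day after plating and left for 72 h before CellTiter-Glo 2.0 addition.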

In assay [2] the test system is T-Rex 293 cell line SC3 cells lacking increased expression of androgen receptor protein. Description: Cellular growth inhibition, T-Rex 293 SC3 cells without doxycycline, CellTiter-Glo. It counts as cell-based. The note with it: 72 h, T-Rex 293 SC3 cells not exposed to doxycycline, CellTiter-Glo 2.0. An outline of the steps: as §1

As to `Cc1sc2c(c1C)C(c1ccc(CC3CC4(C3)CN(c3ncc(C(=O)N[C@H]5C(C)(C)[C@H](Oc6ccc(C#N)c(Cl)c6)C5(C)C)cn3)C4)cc1)=N[C@@H](Cc1ncco1)c1nnc(C)n1-2` [Compound I-151], the GI50 (in assay [1]; in the assay with T47D cells; with VCaP cells; in assay [2]) was below 500 nM in each case.

For the compound `Cc1sc2c(c1C)C(c1ccc(CC3CC4(C3)CN(c3ncc(C(=O)N[C@H]5C(C)(C)[C@H](Oc6ccc(C#N)c(Cl)c6)C5(C)C)cn3)C4)cc1)=N[C@H](Cc1ncco1)c1nnc(C)n1-2` [Compound I-152], the GI50 was below 500 nM in assay [1], above 3000 nM with T47D cells, above 3000 nM in the assay with VCaP cells and above 3000 nM in assay [2].

As for `Cc1sc2c(c1C)C(c1ccc(CC3CN(C4CCN(c5ncc(C(=O)N[C@H]6C(C)(C)[C@H](Oc7ccc(C#N)c(Cl)c7)C6(C)C)cn5)C4)C3)cc1)=N[C@@H](Cc1ncco1)c1nnc(C)n1-2` (some centres unmarked) [Compound I-154], the GI50 (in assay [1]; in the assay with T47D cells; in the assay with VCaP cells; in assay [2]) was below 500 nM each time.

Regarding `Cc1sc2c(c1C)C(c1ccc(C[C@H]3C[C@@]4(CCCN(c5ncc(C(=O)N[C@H]6C(C)(C)[C@H](Oc7ccc(C#N)c(Cl)c7)C6(C)C)cn5)C4)C3)cc1)=N[C@@H](Cc1ncco1)c1nnc(C)n1-2` [Compound I-156], the GI50 in assay [1] was below 500 nM; in the assay with T47D cells it was above 3000 nM; in the assay with VCaP cells it was above 3000 nM; in assay [2], above 3000 nM.

Turning to `Cc1sc2c(c1C)C(c1ccc(C[C@H]3C[C@]4(CCCN(c5ncc(C(=O)N[C@H]6C(C)(C)[C@H](Oc7ccc(C#N)c(Cl)c7)C6(C)C)cn5)C4)C3)cc1)=N[C@@H](Cc1ncco1)c1nnc(C)n1-2` [Compound I-157], the GI50 is below 500 nM in assay [1], 500 to 1500 nM in the assay on T47D cells, 500 to 1500 nM in the assay with VCaP cells and above 3000 nM in assay [2].

For the compound `Cc1sc2c(c1C)C(c1ccc(C[C@H]3C[C@H]([C@H]4CCCN(c5ncc(C(=O)N[C@H]6C(C)(C)[C@H](Oc7ccc(C#N)c(Cl)c7)C6(C)C)cn5)C4)C3)cc1)=N[C@@H](Cc1ncco1)c1nnc(C)n1-2` [Compound I-159], the GI50 (in assay [1]; in the assay on T47D cells; with VCaP cells; in assay [2]) was above 3000 nM each time.

For `Cc1sc2c(c1C)C(c1ccc(C[C@H]3C[C@@H]([C@H]4CCCN(c5ncc(C(=O)N[C@H]6C(C)(C)[C@H](Oc7ccc(C#N)c(Cl)c7)C6(C)C)cn5)C4)C3)cc1)=N[C@@H](Cc1ncco1)c1nnc(C)n1-2` [Compound I-160], the GI50 is above 3000 nM in assay [1], 1500 to 3000 nM with T47D cells, above 3000 nM with VCaP cells and above 3000 nM in assay [2].

For `Cc1sc2c(c1C)C(c1ccc(C[C@H]3C[C@H]([C@@H]4CCCN(c5ncc(C(=O)N[C@H]6C(C)(C)[C@H](Oc7ccc(C#N)c(Cl)c7)C6(C)C)cn5)C4)C3)cc1)=N[C@@H](Cc1ncco1)c1nnc(C)n1-2` [Compound I-162], the GI50 (in assay [1]; with T47D cells; with VCaP cells; in assay [2]) was below 500 nM throughout.

Regarding `Cc1sc2c(c1C)C(c1ccc(C[C@H]3CCC4(CCCN(c5ncc(C(=O)N[C@H]6C(C)(C)[C@H](Oc7ccc(C#N)c(Cl)c7)C6(C)C)cn5)C4)C3)cc1)=N[C@@H](Cc1ncco1)c1nnc(C)n1-2` (some centres unmarked) [Compound I-163], the GI50 in assay [1] was below 500 nM; in the assay with T47D cells, 1500 to 3000 nM; with VCaP cells it was above 3000 nM; in assay [2], above 3000 nM.

Take `Cc1sc2c(c1C)C(c1ccc(C[C@@H]3CC[C@@]4(CCCN(c5ncc(C(=O)N[C@H]6C(C)(C)[C@H](Oc7ccc(C#N)c(Cl)c7)C6(C)C)cn5)C4)C3)cc1)=N[C@@H](Cc1ncco1)c1nnc(C)n1-2` [Compound I-164]: the 50% growth inhibitory concentration (GI50) in assay [1] was below 500 nM; in the assay with T47D cells, 500 to 1500 nM; with VCaP cells, 500 to 1500 nM; in assay [2] it was above 3000 nM.

`Cc1sc2c(c1C)C(c1ccc(C[C@@H]3CC[C@]4(CCCN(c5ncc(C(=O)N[C@H]6C(C)(C)[C@H](Oc7ccc(C#N)c(Cl)c7)C6(C)C)cn5)C4)C3)cc1)=N[C@@H](Cc1ncco1)c1nnc(C)n1-2` [Compound I-165]: the GI50 is below 500 nM in assay [1], 1500 to 3000 nM in the assay with T47D cells, 500 to 1500 nM with VCaP cells and above 3000 nM in assay [2].

Regarding `Cc1sc2c(c1C)C(c1ccc(OCCC3CCN(c4ncc(C(=O)N[C@H]5C(C)(C)[C@H](Oc6ccc(C#N)c(Cl)c6)C5(C)C)cn4)CC3)cc1)=NC(Cc1ncco1)c1nnc(C)n1-2` (some centres unmarked) [Compound I-167], the GI50 in assay [1] is below 500 nM; in the assay with T47D cells, 500 to 1500 nM; in the assay with VCaP cells, below 500 nM; in assay [2], 500 to 1500 nM.

Turning to `Cc1sc2c(c1C)C(c1ccc(OC3CN(CC4CCN(c5ncc(C(=O)N[C@H]6C(C)(C)[C@H](Oc7ccc(C#N)c(Cl)c7)C6(C)C)cn5)CC4)C3)cc1)=N[C@@H](Cc1ncco1)c1nnc(C)n1-2` [Compound I-168], the GI50 is below 500 nM in assay [1], 500 to 1500 nM with T47D cells, above 3000 nM with VCaP cells and above 3000 nM in assay [2].

Consider `Cc1sc2c(c1C)C(c1ccc(OC3CC4(CCN(c5ccc(C(=O)N[C@H]6C(C)(C)[C@H](Oc7ccc(C#N)c(Cl)c7)C6(C)C)cn5)CC4)C3)cc1)=N[C@@H](Cc1ncco1)c1nnc(C)n1-2` [Compound I-170], for which the GI50 was below 500 nM in assay [1], below 500 nM in the assay on T47D cells, below 500 nM with VCaP cells and above 3000 nM in assay [2].

On to `Cc1sc2c(c1C)C(c1ccc(O[C@H]3CC[C@]4(CCCN(c5ncc(C(=O)N[C@H]6C(C)(C)[C@H](Oc7ccc(C#N)c(Cl)c7)C6(C)C)cn5)C4)CC3)cc1)=N[C@@H](Cc1ncco1)c1nnc(C)n1-2` [Compound I-171], for which the GI50 in assay [1] was below 500 nM; with T47D cells, above 3000 nM; with VCaP cells it was below 500 nM; in assay [2], below 500 nM.

Take `Cc1sc2c(c1C)C(c1ccc(O[C@H]3CCC4(CCN(c5ncc(C(=O)N[C@H]6C(C)(C)[C@H](Oc7ccc(C#N)c(Cl)c7)C6(C)C)cn5)CC4)C3)cc1)=N[C@@H](Cc1ncco1)c1nnc(C)n1-2` [Compound I-173]: the GI50 in assay [1] was below 500 nM; in the assay on T47D cells it was below 500 nM; in the assay with VCaP cells, below 500 nM; in assay [2] it was above 3000 nM.

For `Cc1sc2c(c1C)C(c1ccc(O[C@@H]3CCC4(CCN(c5ncc(C(=O)N[C@H]6C(C)(C)[C@H](Oc7ccc(C#N)c(Cl)c7)C6(C)C)cn5)CC4)C3)cc1)=N[C@@H](Cc1ncco1)c1nnc(C)n1-2` [Compound I-174], the GI50 is below 500 nM in assay [1], below 500 nM in the assay with T47D cells, 500 to 1500 nM in the assay on VCaP cells and below 500 nM in assay [2].

As to `Cc1sc2c(c1C)C(c1ccc(O[C@H]3CC[C@]4(CCN(c5ncc(C(=O)N[C@H]6C(C)(C)[C@H](Oc7ccc(C#N)c(Cl)c7)C6(C)C)cn5)C4)C3)cc1)=N[C@@H](Cc1ncco1)c1nnc(C)n1-2` [Compound I-175], the GI50 in assay [1] is below 500 nM; with T47D cells, 500 to 1500 nM; in the assay with VCaP cells, below 500 nM; in assay [2], below 500 nM.

For `Cc1sc2c(c1C)C(c1ccc(O[C@H]3CC[C@@]4(CCN(c5ncc(C(=O)N[C@H]6C(C)(C)[C@H](Oc7ccc(C#N)c(Cl)c7)C6(C)C)cn5)C4)C3)cc1)=N[C@@H](Cc1ncco1)c1nnc(C)n1-2` [Compound I-176], the GI50 in assay [1] was below 500 nM; in the assay with T47D cells, below 500 nM; in the assay on VCaP cells, below 500 nM; in assay [2] it was 500 to 1500 nM.

In the case of `Cc1sc2c(c1C)C(c1ccc(O[C@@H]3CCC4(CCN(c5ncc(C(=O)N[C@H]6C(C)(C)[C@H](Oc7ccc(C#N)c(Cl)c7)C6(C)C)cn5)C4)C3)cc1)=N[C@@H](Cc1ncco1)c1nnc(C)n1-2` (some centres unmarked) [Compound I-177], the GI50 (in assay [1]; with T47D cells; with VCaP cells; in assay [2]) was below 500 nM each time.

On to `Cc1sc2c(c1C)C(c1ccc(O[C@H]3CC[C@]4(CCN(c5ncc(C(=O)N[C@H]6C(C)(C)[C@H](Oc7ccc(C#N)c(Cl)c7)C6(C)C)cn5)C4)CC3)cc1)=N[C@@H](Cc1ncco1)c1nnc(C)n1-2` [Compound I-178], for which the concentration for 50% growth inhibition (GI50) (in assay [1]; in the assay on T47D cells; in the assay on VCaP cells; in assay [2]) was below 500 nM in each case.

For the compound `Cc1sc2c(c1C)C(c1ccc(O[C@H]3CC[C@@]4(CCN(c5ncc(C(=O)N[C@H]6C(C)(C)[C@H](Oc7ccc(C#N)c(Cl)c7)C6(C)C)cn5)C4)CC3)cc1)=N[C@@H](Cc1ncco1)c1nnc(C)n1-2` [Compound I-179], the GI50 in assay [1] was below 500 nM; with T47D cells it was 500 to 1500 nM; with VCaP cells, below 500 nM; in assay [2] it was below 500 nM.

`Cc1sc2c(c1C)C(c1ccc(O[C@H]3CCC4(C3)CN(c3ncc(C(=O)N[C@H]5C(C)(C)[C@H](Oc6ccc(C#N)c(Cl)c6)C5(C)C)cn3)C4)cc1)=N[C@@H](Cc1ncco1)c1nnc(C)n1-2` [Compound I-180]: the GI50 (in assay [1]; in the assay on T47D cells; in the assay with VCaP cells; in assay [2]) was below 500 nM throughout.
